Assay [1] has as its target PD-L1 (Homo sapiens (Human), UniProt Q9NZQ7). Kind of assay: PD-L1 whole blood internalization assay. Type of assay: cell-based. To be noted: 1 ng/ml human interferon γ, PD-L1 expression on CD14+ cells, read-out: Whole Blood (24 HR) IC50. A digest of the protocol:
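Normal human whole blood was exposed to a range of test compound concentrations together with 1 ng/ml human interferon γ, then stained for PD-L1 and CD14 for 30 minutes at room temperature in the dark. After red cell lysis/fixation and centrifugation, CD14+ cells were analyzed by flow cytometry for PD-L1 MFI, and IC50 values came from percent inhibition versus log concentration fits.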

Assay [2] has as its system PD-L1 aAPC/CHO-K1 cells and Jurkat-PD-1-NFAT effector cells. The assay can be described thus: Nuclear factor of activated T-cells (NFAT) assay. The class given is cell-based. To be noted: Cricetulus griseus; PD-L1 aAPC/CHO-K1 cells with Jurkat-PD-1-NFAT effector cells, 24 hours. The procedure, abridged: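 PD-L1 aAPC/CHO-K1 cells co-cultured with Jurkat-PD-1-NFAT effector cells in RPMI 1640 with 1% FBS, compound top concentration 2 μM, 0.4% DMSO, 24 h at 37 °C. Bio-Glo luminescence read; fold induction normalized to DMSO wells, maximum induction relative to control compound, EC50 from percent control activity versus log concentration.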

The target in assay [3] is PD-1/PD-L1 (Homo sapiens (Human), UniProt Q9NZQ7). Kind of assay: Homogeneous Time-Resolved Fluorescence (HTRF) PD-1/PD-L1 binding assay. To be noted: recombinant human PD-1 and PD-L1, 25° C., pH 7.4. The procedure, abridged: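 His-tagged PD-L1 (19-238, 10 nM) and Fc-tagged PD-1 (25-167, 3 nM) preincubated 40 min with inhibitors in PBS pH 7.4, 0.05% Tween-20, 0.1% BSA, 1% DMSO, 25 °C. Eu anti-IgG (1 nM) and anti-His-APC (20 nM) added, 60 min at 25 °C; 665/620 nm ratio fitted for IC50.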
Chain of PD-1/PD-L1 (Q9NZQ7 19-238): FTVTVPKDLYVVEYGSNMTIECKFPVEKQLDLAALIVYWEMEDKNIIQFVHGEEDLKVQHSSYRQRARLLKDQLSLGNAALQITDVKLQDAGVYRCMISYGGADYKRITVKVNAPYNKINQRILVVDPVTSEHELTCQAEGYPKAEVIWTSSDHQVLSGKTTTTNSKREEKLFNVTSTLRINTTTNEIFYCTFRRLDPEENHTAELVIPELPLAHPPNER
Background: Time-resolved FRET reads energy transfer from a long-lived donor to a nearby acceptor.

Assay [4] deals with U2OS/PD-L1 cells and Jurkat-PD-1-SHP cells. Kind of assay: Src homology region 2 domain-containing phosphatase (SHP) assay. To be noted: Homo sapiens; U2OS/PD-L1 cells with Jurkat-PD-1-SHP cells, 2 hours. The class given is cell-based. How it is done: Example B. Src Homology Region 2 Domain-Containing Phosphatase (SHP) Assay
U2OS/PD-L1 cells (DiscoveRx Corporation) were maintained in McCoy's 5A medium with addition of 10% FBS, 0.25 μg/ml Puromycin. After removing the culture media, the cell medium was replaced with assay medium (RPMI1640 medium with 1% FBS). The U2OS/PD-L1 cells were then added in 384-well black clear bottom assay plate (CELLCOAT® Tissue Culture Plates, Greiner Bio-One) at 5000 cells per well in 20 μL assay medium. Test compounds were prepared by serial dilution in DMSO and 125 nL compound were first transferred to the 384 REMP plate well (Thermofisher) by ECHO liquid handler (Labcyte) followed with addition of 27.5 μL assay medium. 5 μL/well compounds in the assay medium were transferred to the cell plate with 0.05% DMSO in the final assay at 0.5 μM. Jurkat-PD-1-SHP cells (DiscoveRx Corporation) were cultured in RPMI1640 medium supplemented with 10% FBS, 250 μg/ml Hygromycin B, 500 μg/ml G418. After the replacement of culture media with assay medium, 5,000 Jurkat-PD-1-SHP cells in 20 μL were dispensed into each well. The assay plate was incubated at 37° C., 5% CO2 for 2 hours before 2.5 μL PathHunter reagent 1 (DiscoveRx Corporation) were added to each well. The assay plate was shaken for 1 min at 350 rpm in the dark followed with addition of 10 μL PathHunter reagent 2 (DiscoveRx Corporation). Chemiluminescent signal was recorded with TopCount reader (Perkin Elmer) after incubation at room temperature for 1 hour. Wells with DMSO were served as the positive controls and wells containing no cells were used as negative controls. IC50 determination was performed by fitting the curve of percentage of control activity versus the log of the compound concentration using the GraphPad Prism 6.0 software.

A value given as a limit tells only on which side of the number the result lay.

The results in this text go back to patent US10669271B2, “Heterocyclic compounds as immunomodulators” (Incyte Corporation, priority 2018, dated 2020).

Chain of PD-L1 (Q9NZQ7 19-290): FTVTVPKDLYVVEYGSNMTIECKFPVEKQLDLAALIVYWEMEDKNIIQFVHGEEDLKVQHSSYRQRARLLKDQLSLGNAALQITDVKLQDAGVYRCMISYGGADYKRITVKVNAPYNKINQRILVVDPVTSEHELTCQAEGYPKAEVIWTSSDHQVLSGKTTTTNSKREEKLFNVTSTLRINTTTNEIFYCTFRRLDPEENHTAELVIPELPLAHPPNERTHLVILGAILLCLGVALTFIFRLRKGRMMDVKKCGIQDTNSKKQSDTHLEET

In the case of `Cc1nc(Nc2cccc(-c3cccc(-c4nc5cc(CN6CC[C@@](C)(C(=O)O)C6)cc(C#N)c5o4)c3C)c2C)c2ncc(CN3CC[C@](C)(O)C3)cc2n1` [Example 13, (R)-1-((7-cyano-2-(3′-(7-(((S)-3-hydroxy-3-methylpyrrolidin-1-yl)methyl)-2-methylpyrido[3,2-d]pyrimidin-4-ylamino)-2,2′-dimethylbiphenyl-3-yl)benzo[d]oxazol-5-yl)methyl)-3-methylpyrrolidine-3-carboxylic Acid], the 50% inhibitory concentration (IC50) in assay [1] was 10 to 100 nM; in assay [3], no more than 10 nM; in assay [4], no more than 10 nM. Further, the half-maximal effective concentration (EC50) in assay [2] is 10 to 100 nM.
As for `Cc1nc(Nc2cccc(-c3cccc(-c4nc5cc(CN6CC[C@@](C)(C(=O)O)C6)cc(C#N)c5o4)c3C)c2C)c2ncc(CN[C@@H](C)CO)cc2n1` [Example 14, (R)-1-((7-cyano-2-(3′-(7-(((S)-1-hydroxypropan-2-ylamino)methyl)-2-methylpyrido[3,2-d]pyrimidin-4-ylamino)-2,2′-dimethylbiphenyl-3-yl)benzo[d]oxazol-5-yl)methyl)-3-methylpyrrolidine-3-carboxylic Acid], the figures for the IC50 in assay [1], in assay [3] and in assay [4] were 10 to 100 nM, no more than 10 nM and no more than 10 nM, respectively. Besides, in assay [2], the EC50 was 10 to 100 nM.
Regarding `Cc1c(Nc2nc(C(F)F)nc3cc(CN4CC[C@@H](O)C4)cnc23)cccc1-c1cccc(-c2nc3cc(CN4CCC(C(=O)O)CC4)cc(C#N)c3o2)c1C` [Example 16, (R)-1-((7-cyano-2-(3′-(2-(difluoromethyl)-7-((3-hydroxypyrrolidin-1-yl)methyl)pyrido[3,2-d]pyrimidin-4-ylamino)-2,2′-dimethylbiphenyl-3-yl)benzo[d]oxazol-5-yl)methyl)piperidine-4-carboxylic Acid], the half-maximal inhibitory concentration (IC50) was 10 to 100 nM in assay [1], no more than 10 nM in assay [3] and no more than 10 nM in assay [4]. Also, the 50% effective concentration (EC50) in assay [2] is no more than 10 nM.
On to `Cc1c(Nc2nc(C(F)F)nc3cc(CN4CC[C@@H](O)C4)cnc23)cccc1-c1cccc(-c2nc3cc(CN4CC[C@@H](C(=O)O)C4)cc(C#N)c3o2)c1C` [Example 17, (R)-1-((7-cyano-2-(3′-(2-(difluoromethyl)-7-(((R)-3-hydroxypyrrolidin-1-yl)methyl)pyrido[3,2-d]pyrimidin-4-ylamino)-2,2′-dimethylbiphenyl-3-yl)benzo[d]oxazol-5-yl)methyl)pyrrolidine-3-carboxylic Acid], for which the 50% inhibitory concentration (IC50) in assay [1] is 10 to 100 nM; in assay [3] it was no more than 10 nM; in assay [4], no more than 10 nM. For the same molecule, the EC50 in assay [2] was 10 to 100 nM.
For `Cc1c(Nc2nc(C(F)F)nc3cc(CN4CC[C@@H](O)C4)cnc23)cccc1-c1cccc(-c2nc3cc(CN4CC[C@@](C)(C(=O)O)C4)cc(C#N)c3o2)c1C` [Example 18, (R)-1-((7-cyano-2-(3′-(2-(difluoromethyl)-7-(((R)-3-hydroxypyrrolidin-1-yl)methyl)pyrido[3,2-d]pyrimidin-4-ylamino)-2,2′-dimethylbiphenyl-3-yl)benzo[d]oxazol-5-yl)methyl)-3-methylpyrrolidine-3-carboxylic Acid], the half-maximal inhibitory concentration (IC50) in assay [1] was 10 to 100 nM; in assay [3] it was no more than 10 nM; in assay [4], no more than 10 nM. The molecule further returned a half-maximal effective concentration (EC50) in assay [2] of 10 to 100 nM.
Take `Cc1c(Nc2nc(C3CC3)nc3cc(CN4CC[C@@H](O)C4)cnc23)cccc1-c1cccc(-c2nc3cc(CN4CC[C@@H](C(=O)O)C4)cc(C#N)c3o2)c1C` [Example 28, (R)-1-((7-cyano-2-(3′-(2-cyclopropyl-7-(((R)-3-hydroxypyrrolidin-1-yl)methyl)pyrido[3,2-d]pyrimidin-4-ylamino)-2,2′-dimethylbiphenyl-3-yl)benzo[d]oxazol-5-yl)methyl)pyrrolidine-3-carboxylic Acid]: the IC50 in assay [1] is 100 to 500 nM; in assay [3] it was no more than 10 nM; in assay [4], 10 to 100 nM. The molecule also had a 50% effective concentration (EC50) in assay [2] of 10 to 100 nM.
`Cc1c(Nc2nc(N)nc3cc(CN4CC[C@@H](O)C4)cnc23)cccc1-c1cccc(-c2nc3cc(CN4CCC(C(=O)O)CC4)cc(C#N)c3o2)c1C` [Example 29, (R)-1-((2-(3′-(2-amino-7-((3-hydroxypyrrolidin-1-yl)methyl)pyrido[3,2-d]pyrimidin-4-ylamino)-2,2′-dimethylbiphenyl-3-yl)-7-cyanobenzo[d]oxazol-5-yl)methyl)piperidine-4-carboxylic Acid]: the figures for the half-maximal inhibitory concentration (IC50) in assay [1], in assay [3] and in assay [4] were 10 to 100 nM, no more than 10 nM and no more than 10 nM, respectively. In assay [2], the half-maximal effective concentration (EC50) lay within 10 to 100 nM.
Turning to `Cc1c(Nc2nc(C(F)F)nc3cc(CN4CC[C@@](C)(O)C4)cnc23)cccc1-c1cccc(-c2nc3cc(CN4CCC(C(=O)O)CC4)cc(C#N)c3o2)c1C` [Example 30, (R)-1-((7-cyano-2-(3′-(2-(difluoromethyl)-7-((3-hydroxy-3-methylpyrrolidin-1-yl)methyl)pyrido[3,2-d]pyrimidin-4-ylamino)-2,2′-dimethylbiphenyl-3-yl)benzo[d]oxazol-5-yl)methyl)piperidine-4-carboxylic Acid], the IC50 in assay [1] was 10 to 100 nM; in assay [3] it was no more than 10 nM; in assay [4] it was no more than 10 nM. Besides, the half-maximal effective concentration (EC50) in assay [2] is no more than 10 nM.
Take `Cc1c(Nc2nc(C(F)F)nc3cc(CN4CC[C@](C)(O)C4)cnc23)cccc1-c1cccc(-c2nc3cc(CN4CCC(C(=O)O)CC4)cc(C#N)c3o2)c1C` [Example 31, (S)-1-((7-cyano-2-(3′-(2-(difluoromethyl)-7-((3-hydroxy-3-methylpyrrolidin-1-yl)methyl)pyrido[3,2-d]pyrimidin-4-ylamino)-2,2′-dimethylbiphenyl-3-yl)benzo[d]oxazol-5-yl)methyl)piperidine-4-carboxylic Acid]: the results for the IC50 in assay [1], in assay [3] and in assay [4] were 10 to 100 nM, no more than 10 nM and no more than 10 nM, respectively. For the same molecule, the EC50 in assay [2] is no more than 10 nM.

A word on the IC50: it is the concentration that gives 50% inhibition. The term EC50 denotes the concentration giving half of the maximal effect. Lower therefore signals greater potency.
